Source: patent US8735402B2, “Cycloalkyloxycarboxylic acid derivatives” (Sanofi, priority 2011, dated 2014)

Target: T1, human Edg-1 receptor (Homo sapiens, UniProt P21453)
T1 construct: FLAG (N); expressed in transfected cells; membrane preparation
Experiment: GTP-γ-S assay using human Edg-1 receptors (scintillation proximity assay, CHO Flp-In cell membrane preparation)
Type: biochemical
Conditions: test compound 10 μM; 10 μM S1P regarded as 100% activation; background-corrected; triplicate
From the text: Determination of the Pharmacological Activity A) GTP-γ-S Assay Using Human Edg-1 Receptors In order to determine the Edg-1 receptor activation by the compounds of the invention, a GTP-γ-S ((GTP-γ-S=guanosine 5′-[thio]triphosphate) assay for G-protein coupled receptor binding based on the scintillation proximity assay principle was used, employing a cell membrane preparation from a CHO Flp-In cell line which constitutively overexpresses the human Edg-1 receptor. The Flp-In™ expression system (Invitrogen/Life Technologies™ cat. no. K6010-01) allows the generation of stable mammalian cell lines into which the gene of interest has been integrated through […] at a specific genomic location called Flp Recombination Target (FRT) site by means of a Flp recombinase encoded by the pOG44 expression plasmid. […] The EDG-1 membrane preparation obtained in (b) was initially used in a commercial scintillation proximity assay kit (Amersham/GE Healthcare, cat. no. RPNQ0210) to quantify the receptor activation. Here, the ligand-induced binding of ^35S-radiolabeled GTP-γ-S to the receptor-containing membrane causes the emission of light in the scintillation beads attached to the membrane preparation, which allows quantification of the in vitro activity of the Edg-1-agonistic compound. […]

T1 sequence (P21453 whole entry): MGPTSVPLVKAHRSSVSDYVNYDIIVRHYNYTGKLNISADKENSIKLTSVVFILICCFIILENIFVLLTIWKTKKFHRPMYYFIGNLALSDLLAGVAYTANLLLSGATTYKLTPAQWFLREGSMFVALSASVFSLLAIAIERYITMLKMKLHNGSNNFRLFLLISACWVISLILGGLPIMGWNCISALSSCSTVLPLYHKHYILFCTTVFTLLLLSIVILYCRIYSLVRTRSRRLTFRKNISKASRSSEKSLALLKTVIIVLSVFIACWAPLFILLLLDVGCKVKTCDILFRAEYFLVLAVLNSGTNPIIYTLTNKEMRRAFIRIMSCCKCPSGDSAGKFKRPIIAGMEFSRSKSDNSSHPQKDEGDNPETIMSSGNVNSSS

| Structure (SMILES) | Edg-1 receptor activation by example compounds at 10 μM in percent of the activation by 10 μM S1P (% activation) [%] |
| --- | --- |
| Cc1cc(-c2nc3cnc(Oc4cccc(Cl)c4)nc3o2)cc(C)c1OC1CC(C(=O)O)C1 (centres unmarked) [Example 1, 3-{4-[5-(3-Chlorophenoxy)oxazolo[5,4-d]pyrimidin-2-yl]-2,6-dimethylphenoxy}cyclobutanecarboxylic acid] | 116 |
| Cc1cc(-c2nc3cnc(Oc4ccccc4F)nc3o2)cc(C)c1OC1CC(C(=O)O)C1 (centres unmarked) [Example 2, 3-{4-[5-(2-Fluorophenoxy)oxazolo[5,4-d]pyrimidin-2-yl]-2,6-dimethylphenoxy}cyclobutanecarboxylic acid] | 83 |
